# Test results from PubChem BioAssay AID1035470 (Broad Institute, 2014).
# Results filed as inconclusive are left out. The source made the active and inactive calls.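 Rule for the calls: active = compound lowering the normal-ribosome reporter at least twice as much as the humanized-ribosome reporter, growth loss under a set limit; inconclusive = no clear call, values can overlap the other calls; inactive = the rest.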
# System: E. coli WT-GFP vs G2058-humanized RFP, fluorescence, 24 h
# Assay: E. coli strain growth, wild-type against G2058 humanized RFP mutant – G2058 mutant RFP vs wild-type GFP, cherry-pick, two tests, dose response (AID 1035470)
# [1] = E. coli WT-GFP vs G2058-humanized RFP mixed culture, total growth OD600, 24 h
# [2] = measured here: G2058 humanized mutant RFP growth
# [3] = E. coli WT-GFP vs G2058-humanized RFP mixed culture, OD600 growth, 24 h, test 1
# [4] = measured here: wild-type GFP, test 1
SMILES,AC50,AC50 [1],also measured
Cc1cccc(Nc2nc(-c3ccc(F)cc3)cs2)n1,> 100 µM (inactive),> 100 µM,–
O=C(O)CC(CC(=O)Nc1ccc2ccccc2n1)c1ccccc1 (centres undefined),–,–,AC50 [2]: > 100 µM
Cc1ccccc1S(=O)(=O)c1cc2ccccc2nc1N,–,> 100 µM,–
C=C1c2cc3c(cc2NC(=S)N1Cc1ccccc1)OCO3,–,> 100 µM,–
O=C(O)CC1(CC(=O)Nc2ccc3sccc3c2)CCCCC1,> 100 µM (inactive),–,–
CCCN(CC(=O)Nc1ccccc1C)C(=O)c1cccc(S(=O)(=O)N2CCc3ccccc3C2)c1,> 100 µM (inactive),> 100 µM,–
CCN(CC)CC(=O)Nc1ccc(-c2ccc(NC(=O)CN(CC)CC)c(OC)c2)cc1OC,> 100 µM (inactive),> 100 µM,–
Cn1c(-[n+]2c(-c3ccccc3)cc(-c3ccccc3)cc2-c2ccccc2)nc2c([N+](=O)[O-])cccc21,> 100 µM (inactive),–,–
COc1ccc(Oc2ccc(C(F)(F)F)cc2NC(=O)CC(CC(=O)O)c2ccccc2)cc1 (centres undefined),> 100 µM (inactive),> 100 µM,–
COc1cccc(-c2ccc(SCc3ccccn3)nn2)c1,> 100 µM (inactive),–,–
COC(=O)CC1COc2ccccc2N1C(=O)c1ccc(Br)cc1 (centres undefined),> 100 µM (inactive),> 100 µM,–
CC(=O)CSc1ccc(-c2nc3ccccc3[nH]2)cn1,> 100 µM (inactive),> 100 µM,–
CCCCc1ccc(S(=O)(=O)Nc2ccc(C)c(NS(C)(=O)=O)c2)cc1,> 100 µM (inactive),–,–
CCOC(=O)c1c(C)[nH]c(C)c1S(=O)(=O)NCCN1CCN(c2ccccc2F)CC1,> 100 µM (inactive),> 100 µM,–
C[C@@H]1CN([C@@H](C)CO)C(=O)c2cccc(NC(=O)c3nc4ccccc4s3)c2O[C@@H]1CN(C)CC1CC1,–,> 100 µM,–
Cc1noc(C)c1COc1cccc(C(=O)N2CCc3ccccc32)c1,> 100 µM (inactive),–,–
COC(=O)c1c(NC(=O)CCC(=O)O)sc(Cc2ccccc2)c1C,28.4 µM,35.7 µM,"AC50 [3]: 27 µM; AC50 [2]: 5.11 µM; AC50 (measured here: mutant RFP, test 1): 11.9 µM; AC50 [4]: 1.53 µM"
O=C(O)CC(CC(=O)Nc1ccc(Oc2ccccc2)cc1)c1ccccc1 (centres undefined),> 100 µM (inactive),–,–
COc1ccc(C(=O)CSc2nc3ccccc3n2CC(=O)c2ccccc2)cc1,> 100 µM (inactive),–,AC50 [2]: > 100 µM
O=C(CSc1nnc(-c2ccccc2F)n1C1CC1)Nc1cccnc1Cl,> 100 µM (inactive),–,–
Cc1nn(CC(=O)OCCOc2ccc(Br)cc2)c(C)c1[N+](=O)[O-],> 100 µM (inactive),–,–
Cc1ccc(SCC(=O)Nc2ccc(S(=O)(=O)Nc3nccs3)cc2)cc1,> 100 µM (inactive),> 100 µM,–

SMILES,AC50,AC50 [1],also measured
O=c1[nH]c(C2CCCN(S(=O)(=O)c3ccccc3Cl)C2)nc2c1nnn2Cc1ccc2c(c1)OCCO2 (centres undefined),> 100 µM (inactive),–,–
CCCCCc1nnc(NC(=O)C2COc3ccccc3O2)s1 (centres undefined),> 100 µM (inactive),> 100 µM,AC50 [2]: 23.2 µM
COc1cc(OC)c(NS(=O)(=O)c2cccc(C(=O)OCC(=O)NCC3CCCO3)c2)cc1Cl (centres undefined),–,> 100 µM,–
CC(C)(CC(=O)O)CC(=O)NCc1c(Cl)cccc1Sc1ccc(Cl)cc1,> 100 µM (inactive),–,–
O=C(COC(=O)CNC(=O)c1ccc(F)cc1)Nc1cccc(S(=O)(=O)N2CCCC2)c1,–,> 100 µM,–
COc1ccc(-c2noc(=O)n2Cc2ccccc2Cl)cc1,–,> 100 µM,–
CCOc1ccccc1C(=O)OCC(=O)NCCc1ccc(OC)cc1,> 100 µM (inactive),50.9 µM,–
CC1(c2ccc3ccccc3c2)NC(=O)N(CC(=O)N2CCN(c3ccccc3O)CC2)C1=O (centres undefined),> 100 µM (inactive),> 100 µM,–
COC(=O)CNC(=O)COC(=O)c1ccc(Cl)nc1,–,> 100 µM,–
O=C(NCCc1ccccn1)c1cccc(S(=O)(=O)N2CCc3ccccc32)c1,> 100 µM (inactive),> 100 µM,–
CC(=O)c1c(C)nn(CC(O)COc2ccc3c(c2)CCC3)c1C (centres undefined),> 100 µM (inactive),–,–
COc1ccc(C#Cc2ccc([C@H]3[C@@H](CO)N4CCCCN(C(=O)Nc5cccc(F)c5)C[C@H]34)cc2)cc1,–,> 100 µM,–
O=C(Nc1cccc(Oc2ccc3c(c2)C(=O)NC3=O)c1)c1cccs1,> 100 µM (inactive),–,–
COc1ccc(C2CC(=O)Oc3cc(C)cc(C)c32)cc1 (centres undefined),> 100 µM (inactive),–,–
CN(C)CCCN(C(=O)CCSc1ccccc1)c1nc2cc3c(cc2s1)OCO3,> 100 µM (inactive),> 100 µM,–
CSc1nc2ccc(NS(=O)(=O)c3ccc([N+](=O)[O-])cc3)cc2s1,> 100 µM (inactive),> 100 µM,AC50 [2]: > 100 µM
CS(=O)(=O)c1ccc(C(=O)Nc2nc(-c3ccco3)c(-c3ccco3)s2)cc1,> 100 µM (inactive),> 100 µM,AC50 [2]: > 100 µM
C=CCSc1cc(C)nc2c(-c3ccccc3)c(C)nn12,> 100 µM (inactive),–,–
COc1cccc(CN(C)Cc2nc(Cc3ccccc3Cl)no2)c1,> 100 µM (inactive),> 100 µM,–
O=C(COC(=O)c1ccc([N+](=O)[O-])o1)NC12CC3CC(CC(C3)C1)C2,> 100 µM (inactive),–,–
CCOC(=O)c1sc(NC(=O)CN2CCN(c3ccccc3)CC2)nc1C,> 100 µM (inactive),> 100 µM,–
Cc1onc(-c2ccccc2Cl)c1C(=O)OCC(=O)c1ccccc1,> 100 µM (inactive),–,–

SMILES,AC50,AC50 [1],also measured
CNC(=O)c1cc(C(=O)c2ccc(C(F)(F)F)cc2F)c[nH]1,> 100 µM (inactive),> 100 µM,–
O=C(Nc1nc2ccccc2n1CCN1CCOCC1)c1ccccc1,> 100 µM (inactive),–,–
Cc1ccc(Oc2ccc(S(=O)(=O)N3CCOCC3)cc2C(N)=O)cc1C,> 100 µM (inactive),> 100 µM,–
COc1ccc(CN2CCC3CC2c2cc(Cl)ccc23)cc1 (centres undefined),> 100 µM (inactive),–,–
COc1cccc(NC(=O)c2ccc(NCCCN3CCC(C)CC3)c([N+](=O)[O-])c2)c1,–,–,AC50 [2]: 28.4 µM
CSc1ccccc1C(=O)NCCc1ccc(S(=O)(=O)N2CCCCC2)cc1,> 100 µM (inactive),–,–
c1ccc(CSCc2ccccc2)cc1,–,–,AC50 [2]: > 100 µM
CCn1ccnc1CN1CCCC(C(=O)c2ccc3cc(OC)ccc3c2)C1 (centres undefined),> 100 µM (inactive),> 100 µM,–
O=C1c2cccc(OCC(=O)N3CCCc4ccccc43)c2CCN1Cc1cccnc1,> 100 µM (inactive),> 100 µM,–
COc1ccc(-c2csc(NC(=O)c3ccccc3S(C)(=O)=O)n2)cc1,> 100 µM (inactive),> 100 µM,AC50 [2]: > 100 µM
CC(=O)Nc1nc(C)c(-c2csc(Nc3ccccn3)n2)s1,> 100 µM (inactive),–,–
COC(=O)c1sccc1NC(=O)CNC(=O)c1ccccc1,–,> 100 µM,–
CC(=O)N1CCN(c2nc(-c3cccs3)nc3ccccc23)CC1,> 100 µM (inactive),–,–
O=C(NCc1ccco1)c1ccc(COc2cccc3ccccc23)cc1,> 100 µM (inactive),> 100 µM,–
COc1ccc(C(=O)N(c2ccccc2)c2nccc3ccccc23)cc1OC,> 100 µM (inactive),–,–
Cc1ccc(NC(=O)c2ccc([N+](=O)[O-])o2)c(C)c1,> 100 µM (inactive),–,–
COc1ccc(C(CC(=O)c2ccc(O)cc2)S(=O)(=O)c2ccc(C)cc2)cc1 (centres undefined),> 100 µM (inactive),–,–
COC(=O)c1ccccc1NC(=O)c1ccc2c(c1)CC(C)O2 (centres undefined),> 100 µM (inactive),52.3 µM,–
Cc1c(C(=O)O)oc2ccc(S(=O)(=O)NC3CCCCCCC3)cc12,> 100 µM (inactive),–,–
C[C@@H]1CN([C@@H](C)CO)C(=O)CCCn2nncc2CO[C@H]1CN(C)C(=O)Nc1cccc(C(F)(F)F)c1,–,> 100 µM,–
O=C(CN(c1ccc(F)cc1)S(=O)(=O)c1ccccc1)Nc1ccccc1C(=O)O,–,> 100 µM,–
COc1ccc(NC(=O)c2ccc(-c3ccc([N+](=O)[O-])cc3)o2)cc1,9.28 µM,–,AC50 [3]: > 100 µM; AC50 [4]: 4.75 µM

SMILES,AC50,AC50 [1],also measured
O=C(c1ccccc1)C1Oc2ccccc2C2CC(c3cccs3)=NN12 (centres undefined),> 100 µM (inactive),–,–
CCCC(=O)Nc1sc2c(c1C(=O)Nc1ccccn1)CCCC2,> 100 µM (inactive),> 100 µM,–
O=C(Nc1ccccc1Cl)c1ccc2c(c1)N(Cc1ccc(F)cc1)C(=O)CS2=O (centres undefined),> 100 µM (inactive),–,–
O=C(O)c1ccccc1NC(=O)C(c1ccccc1)c1ccccc1,> 100 µM (inactive),–,–
CCN(CC(=O)Nc1ccccc1OC)CC(=O)Nc1c(Cl)ccc(C)c1Cl,> 100 µM (inactive),> 100 µM,–
COc1cccc(C(=O)Nc2nnc(S(=O)(=O)N(C)Cc3ccccc3)s2)c1,> 100 µM (inactive),> 100 µM,–
COc1ccc(NC(=O)Nc2cccc3c2O[C@H](CN(C)S(=O)(=O)c2ccc(Cl)cc2)[C@H](C)CN([C@H](C)CO)C3=O)cc1,> 100 µM (inactive),–,–
COc1ccc(S(=O)(=O)N2CCOc3ccccc32)cc1,–,> 100 µM,AC50 [2]: > 100 µM
CCOc1cccc(-c2cc(-c3n[nH]c(=S)n3CC)c3ccccc3n2)c1,> 100 µM (inactive),–,–
COc1ccc(OC)c(S(=O)(=O)Nc2cccc3ccc(O)cc23)c1,> 100 µM (inactive),–,–
COc1ccc(Nc2nc(N)c([N+](=O)[O-])c(N3CCOCC3)n2)cc1,> 100 µM (inactive),> 100 µM,–
COC(=O)c1ccc(OCC(=O)c2ccccc2OC)cc1,> 100 µM (inactive),> 100 µM,–
O=C(Nc1cccc(Cl)c1)N1C[C@@H]2[C@H](c3ccccc31)[C@@H](CO)N2C(=O)c1cccnc1,–,–,AC50 [2]: > 100 µM
COc1cccc(SCC(=O)N2CCN(c3ccccc3)CC2)c1,–,> 100 µM,–
Cc1ccc(-c2nc(CN3CCCCC3c3cccc(F)c3)c(C)o2)o1 (centres undefined),–,> 100 µM,–
NS(=O)(=O)c1ccc(NC(=O)CCC(=O)O)cc1,–,> 100 µM,–
Cc1cc(OCC(=O)N(Cc2ccco2)C2CCS(=O)(=O)C2)ccc1Cl (centres undefined),> 100 µM (inactive),> 100 µM,–
COc1ccc(-c2noc(CCc3ccccc3)n2)cc1,> 100 µM (inactive),–,–
Cc1nnc2sc(SCC(=O)Nc3ccc(Br)cc3)nn2c1=O,> 100 µM (inactive),–,AC50 [2]: > 100 µM
